{"source": "patent US12569506B2", "about": "“Methods of treating osteonecrosis with LLP2A-bisphosphonate compounds” (The Regents of the University of California, priority 2016, dated 2026)", "key": {"[1]": {"tested_on": "dexamethasone-treated mice", "experiment": "30 and 45 day prevention study: incidence of glucocorticoid-induced osteonecrosis", "format": "in vivo, BALB/c mice", "details": "for Incidence of glucocorticoid-induced osteonecrosis: Dex alone 4 mg/L in drinking water; for Prevalence/incidence of glucocorticoid-induced osteonecrosis lesions (in words): 30 or 45 days, Dex + LLP2A-Ale 250 or 500 μg/kg, or Dex + 40 μg/kg hPTH five times a week (FIG. 12)", "protocol": "FIG. 12. Reduction in incidence of glucocorticoid-induced osteonecrosis in mice treated with recombinant LLP2A-Ale. Mice were randomized into placebo (PL) (fresh water), dexamethasone (Dex) 4 mg/l in drinking water, Dex+250 μg/kg LLP2A-Ale, Dex+500 μg/kg LLP2A-Ale, or Dex+40 μg/kg hPTH (1-34) groups for a 30 day treatment period or a 45 day treatment period. The incidence of Dex-induced osteonecrosis was 57% on day 30 and 73% on day 45.\n(§1) The efficacy of LLP2A-Ale and hPTH (1-34) was evaluated over a 30 and 45 day study using a mouse model of glucocorticoid-induced osteonecrosis. Seven week-old male BALB/c mice were randomized into Placebo group (fresh water), glucocorticoid only (4 mg/L dexamethasone (Dex) in drinking water), Dex+250 μg/kg LLP2A-Ale, Dex+500 μg/kg LLP2A-Ale, or Dex+40 μg/kg hPTH (administered five times a week) for 30 or 45 days. At day 30 or 45, the mice were sacrificed. Study endpoints included histological evidence of osteonecrosis, bone mass, and prevalent blood vessels (CD31 and Endomucin expression) in the distal femur, and was performed as set forth in Example 2. Non-parametric Kruskal-Wallis tests were used to determine the differences between the groups."}, "[2]": {"tested_on": "CD31 and Endomucin expression", "experiment": "30 and 45 day prevention study: blood vessels in the distal femur (CD31 and Endomucin expression)", "format": "in vivo, BALB/c mice", "protocol": "as §1"}, "[3]": {"tested_on": "dexamethasone-treated mice", "experiment": "30 and 45 day prevention study: trabecular bone histology of distal femur epiphyses", "format": "in vivo, BALB/c mice", "protocol": "as §1"}, "[4]": {"experiment": "Body weight, 90 day model", "format": "in vivo, BALB/c mice", "details": "all Dex treated animals vs placebo, day 7 up to day 90 (p<0.05)", "protocol": "All the mice were euthanized at day 90. The body weights of all the study animals were assessed each week. If the study animals had 10% loss of body weight compared to the previous week, the dose of dexamethasone was reduced to 2 mg/L, until weight gain was observed. All of the animals were injected with calcein (30 mg/kg) and alizarin red (20 mg/kg) at 7 and 2 days before euthanization."}, "[5]": {"tested_on": "dexamethasone-treated mice", "experiment": "Histological evaluation (H&E) of femoral epiphyses, 90 day model", "format": "in vivo, BALB/c mice", "details": "Dex 4 mg/L in drinking water, day 90, femoral epiphyses (FIG. 9C-9F)", "protocol": "FIG. 9A-9F. Histological evaluation of femurs from placebo- or dexamethasone-treated mice. Mice were treated with placebo (PL) or dexamethasone alone (Dex) as described above for FIG. 7. All mice were euthanized at day 90. Right and left distal femurs were fixed in 10% neutral buffer formalin and decalcified. The specimens were dehydrated, embedded in paraffin, cut into 5 micron sections and H&E stained. The sections were scored by two experienced histologists and then a consensus reading was performed by two additional histologists. FIG. 9A-9B: 4× (A) and 20× (B) magnifications of representative proximal femoral epiphyses in mice treated with placebo. (C) 4× magnification of a representative proximal femoral epiphyses in mice treated with dexamethasone (Dex) alone. FIGS. 9D, 9E, and 9F: 20× magnifications of representative proximal femoral epiphyses in mice treated with dexamethasone (Dex) alone.\nFIG. 11A-11F. Histological evaluation of femurs from LLP2A-Ale-treated mice. Mice were treated with Dex+250 μg/kg LLP2A-Ale as described above for FIG. 7. All mice were euthanized at day 90. Right and left distal femurs were fixed in 10% neutral buffer formalin and decalcified. The specimens were dehydrated, embedded in paraffin, cut into 5 micron sections and H&E stained. The sections were scored by two experienced histologists and then a consensus reading was performed by two additional histologists. (A, D): 4× magnifications of representative proximal femoral epiphyses in mice treated with Dex+LLP2A-Ale. (B, C, E, F): 20× magnifications of representative proximal femoral epiphyses in mice treated with Dex+LLP2A-Ale.\n(§2) Both the right and left distal femurs were fixed in 10% neutral buffered formalin and were shaken for 3 days, then decalcified in 5% EDTA until the bones were fully decalcified. The specimens were then processed in ascending concentrations of ethanol and embedded in paraffin. Tissue sections were cut into 5 microns sections, stained with hematoxylin and eosin and evaluated for the presence of osteonecrosis by bright field microscopy at 20× magnification. Experimental methods are also described in Mohan et al., Calif Tissue Int (2016) doi:10.1007/s00223-016-0195-6, which is incorporated herein by reference in its entirety for all purposes. Osteonecrosis was detected using modified criteria reported by Yang el al., (a mouse model for glucocorticoid-induced osteonecrosis: Effect of a steroid holiday. J Orthop Res. 2009; 27:169-75) which defines osteonecrosis as requiring all of the following changes: (1) empty lacunae, (2) pyknotic osteocyte nuclei in areas of empty lacunae and necrosis of adjacent bone marrow, (3) presence of excessive fat cells in the bone marrow, (4) cartilage degradation and (5) presence of fibrin thrombi in the blood vessels. In addition, trabecular bone volume, adipose volume, sinusoid volume and osteoblast surface at the distal femoral epiphyses were measured. Empty lacunae density was calculated by empty lacunae/total osteocytes within the entire distal femoral epiphysis region for each sample. Each section was scored by two experienced histologists, then a consensus reading was performed by two additional experienced histologists."}, "[6]": {"tested_on": "dexamethasone-treated mice", "experiment": "Empty lacunae density in distal femoral epiphysis, 90 day model", "format": "in vivo, BALB/c mice", "details": "distal femoral epiphysis, day 90; Dex only vs LLP2A-Ale 250, 500, 750 μg/kg groups (FIG. 8A-B)", "protocol": "FIG. 8A-8B. Empty lacunae density of femurs from in dexamethasone-treated mice. Mice treated with placebo (PL), dexamethasone alone (Dex), Dex+250 μg/kg LLP2A-Ale, Dex+500 μg/kg LLP2A-Ale, or Dex+750 μg/kg LLP2A-Ale as described above for FIG. 7 were assessed for empty lacunae density within the distal femoral epiphysis region. Empty lacunae density was calculated by determining the number of empty lacunae in the entire distal femoral epiphysis region divided by the total number of osteocytes within the same region for each specimen. In the Dex only group, 75% of the samples had 10% or more empty lacunae, as compared to 44-62% of the samples in LLP2A-Ale-treated groups. A higher number of LLP2A-Ale 250 μg/kg, LLP2A-Ale 500 μg/kg, and LLP2A-Ale 750 μg/kg—treated samples had less than 10% empty lacunae as compared to Dex only treatment.\nas §2, with “Experimental methods are also described in Mohan et al., Calif Tissue Int (2016) doi:10.1007/s00223-016-0195-6, which is incorporated herein by reference in its entirety for all purposes.” left out, “Each section was scored by two experienced histologists, then a consensus reading was performed by two additional experienced histologists.” left out"}, "[7]": {"molecular_target": "α4β1 integrin (Homo sapiens, UniProt P05556+P13612)", "sequence (P13612 34-1032)": "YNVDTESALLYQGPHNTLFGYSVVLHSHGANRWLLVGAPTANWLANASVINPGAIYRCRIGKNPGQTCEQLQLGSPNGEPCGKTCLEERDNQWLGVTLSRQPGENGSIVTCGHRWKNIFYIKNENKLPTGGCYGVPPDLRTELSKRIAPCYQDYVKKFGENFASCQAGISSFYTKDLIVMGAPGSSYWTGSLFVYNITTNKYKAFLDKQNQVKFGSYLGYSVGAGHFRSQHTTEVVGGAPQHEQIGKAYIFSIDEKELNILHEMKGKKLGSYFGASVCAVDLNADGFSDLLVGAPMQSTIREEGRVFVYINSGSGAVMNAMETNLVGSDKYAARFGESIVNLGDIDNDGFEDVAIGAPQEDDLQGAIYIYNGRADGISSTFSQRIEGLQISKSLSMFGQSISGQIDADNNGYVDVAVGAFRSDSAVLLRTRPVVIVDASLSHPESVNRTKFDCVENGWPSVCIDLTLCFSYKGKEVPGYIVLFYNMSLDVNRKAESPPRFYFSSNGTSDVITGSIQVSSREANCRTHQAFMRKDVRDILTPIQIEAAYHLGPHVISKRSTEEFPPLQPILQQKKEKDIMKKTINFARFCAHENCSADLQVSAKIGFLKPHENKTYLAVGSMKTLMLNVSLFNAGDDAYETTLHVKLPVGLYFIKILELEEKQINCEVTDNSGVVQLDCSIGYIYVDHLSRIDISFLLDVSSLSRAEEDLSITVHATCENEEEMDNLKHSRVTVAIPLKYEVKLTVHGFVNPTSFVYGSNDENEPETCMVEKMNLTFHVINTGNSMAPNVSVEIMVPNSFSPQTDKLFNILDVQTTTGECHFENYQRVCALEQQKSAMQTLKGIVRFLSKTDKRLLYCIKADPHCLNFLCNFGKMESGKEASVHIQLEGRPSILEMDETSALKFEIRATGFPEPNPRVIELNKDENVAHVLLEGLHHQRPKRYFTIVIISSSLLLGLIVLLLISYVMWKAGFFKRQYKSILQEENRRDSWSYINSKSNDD", "sequence (P05556 21-798)": "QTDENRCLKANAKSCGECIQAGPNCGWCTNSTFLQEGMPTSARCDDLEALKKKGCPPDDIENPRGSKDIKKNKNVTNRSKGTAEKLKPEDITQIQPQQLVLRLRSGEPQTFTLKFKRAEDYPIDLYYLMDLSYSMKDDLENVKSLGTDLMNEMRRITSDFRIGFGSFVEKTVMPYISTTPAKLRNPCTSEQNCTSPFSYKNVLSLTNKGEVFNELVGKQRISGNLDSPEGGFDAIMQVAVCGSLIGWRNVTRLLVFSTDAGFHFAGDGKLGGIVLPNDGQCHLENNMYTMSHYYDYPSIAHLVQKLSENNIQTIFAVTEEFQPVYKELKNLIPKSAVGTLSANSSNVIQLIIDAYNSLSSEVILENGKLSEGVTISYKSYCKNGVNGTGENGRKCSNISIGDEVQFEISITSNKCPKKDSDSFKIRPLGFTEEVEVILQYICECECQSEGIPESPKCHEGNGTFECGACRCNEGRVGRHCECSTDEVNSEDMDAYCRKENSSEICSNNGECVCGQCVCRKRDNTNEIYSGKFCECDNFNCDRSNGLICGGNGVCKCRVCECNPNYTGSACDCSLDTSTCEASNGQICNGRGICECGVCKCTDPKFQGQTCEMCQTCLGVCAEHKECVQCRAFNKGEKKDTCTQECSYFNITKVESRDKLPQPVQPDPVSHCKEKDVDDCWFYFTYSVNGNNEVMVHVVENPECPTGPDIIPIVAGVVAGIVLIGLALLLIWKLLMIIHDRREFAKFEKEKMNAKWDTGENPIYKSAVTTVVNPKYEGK", "details": "Liu 2006; Peng 2006; DeNardo 2009; cited from earlier work"}, "[8]": {"tested_on": "glucocorticoid-treated mice", "experiment": "Trabecular bone volume in glucocorticoid-treated mice", "format": "in vivo", "details": "GC 28 days then treatment; change from day 28 to 56, measured in vivo (FIG. 6 left)", "protocol": "FIG. 6. Trabecular bone volume in glucocorticoid-treated mice. Mice were treated for 28 days with glucocorticoid (GC), then treated with either LLP2A-Ale, PTH, or LLP2A-Ale+PTH. The outcome measure was the change in trabecular bone mass from day 28 to 56, measured in vivo at the distal femur (left panel) and change in trabecular bone mass for the vertebral trabecular bone volume (right panel).\nChanges in trabecular bone mass during the treatment period for the distal femur and vertebral trabecular bone volume were measured."}, "[9]": {"tested_on": "glucocorticoid-treated mice", "experiment": "56 day mouse model of glucocorticoid-induced osteonecrosis: femur blood vessel / vascular density by microCT", "format": "in vivo", "protocol": "FIG. 2. Blood vessel density of femurs from glucocorticoid-treated mice. 4 month old male mice were treated glucocorticoid (“GC”) or placebo for 56 days. At day 28 a group of glucocorticoid-treated mice were treated with LLP2A-Ale or PTH for an additional 28 days.\nFIG. 3. Vascular density of femurs from glucocorticoid-treated mice. 4 month old male mice were treated with glucocorticoid or placebo for 56 days. At day 28 a group of glucocorticoid-treated mice were treated with LLP2A-Ale or PTH for an additional 28 days. At day 56 animals were given a contrast agent and then sacrificed and then the animals femurs were decalcified and then scanned by microCT.\nThe efficacy of LLP2A-Ale was evaluated using a mouse model of glucocorticoid-induced osteonecrosis. 4-month-old male mice were treated for 56 days with glucocorticoids. At day 28, a group of mice was treated with either LLP2A-Ale or PTH for an additional 28 days. Blood vessel density of the femur was measured after sacrifice by microCT according to published methods. […] Vascular density of the femurs of glucocorticoid-treated mice subsequently treated with LLP2A-Ale or PTH was also assessed by giving the mice a contrast agent, then sacrificing the mice, decalcifying the femurs, and scanning the femurs by microCT. […] Without being bound to a particular theory, it is believed that LLP2A-Ale promotes increased vascularity by bringing MSCs to the bone that is turning over with osteonecrosis, which stimulates new blood vessel formation, which in turn is needed to stimulate new bone formation in the osteonecrotic bone."}}, "note": "“Also recorded” adds a separate entry of the source."}
{"molecule": "C[C@@H]1C[C@H]2[C@@H]3CCC4=CC(=O)C=C[C@]4(C)[C@@]3(F)[C@@H](O)C[C@]2(C)[C@@]1(O)C(=O)CO", "note": "[Dex, dexamethasone]", "values": [{"measurement": "Incidence of glucocorticoid-induced osteonecrosis", "setting": "[1]; day 30", "result": 57, "unit": "%"}, {"measurement": "Incidence of glucocorticoid-induced osteonecrosis", "setting": "[1]; day 45", "result": 73, "unit": "%"}, {"measurement": "Staining intensity of CD31 and Endomucin expression", "setting": "[2]; Dex vs LLP2A-Ale, hPTH (1-34) or placebo, day 30 and 45 (data not shown)", "result": "decreased the staining intensity"}, {"measurement": "Trabecular thickness", "setting": "[3]; Dex vs placebo, day 30 and 45 (p<0.05)", "result": "significantly reduced"}, {"measurement": "Trabecular number", "setting": "[3]; Dex, day 45 (p<0.05)", "result": "significantly reduced"}, {"measurement": "Body weight", "setting": "[4]", "result": "significantly lower"}, {"measurement": "Histological findings of osteonecrosis with dexamethasone alone", "setting": "[5]", "result": "Evidence of osteonecrosis was present throughout the epiphyses of the distal femurs; also recorded: necrotic trabeculae characterized by large empty lacunae"}, {"measurement": "Histological findings of osteonecrosis with dexamethasone alone", "setting": "[5]; listed as dexamethasone", "result": "most of the bone marrow space was occupied by fat"}, {"measurement": "Samples with 10% or more empty lacunae", "setting": "[6]", "result": 75, "unit": "%"}]}
{"molecule": "Cc1ccccc1NC(=O)Nc1ccc(CC(=O)N[C@@H](CCCCNC(=O)/C=C/c2cccnc2)C(=O)N[C@@H](CCCC(=O)O)C(=O)NC2(C(N)=O)CCCCC2)cc1", "note": "[LLP2A]", "values": [{"measurement": "Binding to α4β1 integrin (affinity and specificity in words)", "setting": "[7]", "result": "high-affinity, high-specificity"}]}
{"molecule": "hPTH (1-34): human PTH (1-34), 40 μg/kg five times a week in Example 3 (SVSEIQLMHNLGKHLNSMERVEWLRKKLQDVHNF; Parathyroid hormone; UniProt P01270 32-65, looked up, fragment)", "values": [{"measurement": "Prevalence/incidence of glucocorticoid-induced osteonecrosis lesions (in words)", "setting": "[1]", "result": "prevented incident GC-induced osteonecrosis lesions; also recorded: prevented glucocorticoid-induced osteonecrotic lesions"}, {"measurement": "Prevalence/incidence of glucocorticoid-induced osteonecrosis lesions (in words)", "setting": "[1]; listed as hPTH", "result": "reduced the incidence and severity of osteonecrosis"}, {"measurement": "Vascular integrity of the distal femur", "setting": "[2]; 30 and 45 day study, conclusion", "result": "maintained the vascular integrity"}, {"measurement": "Trabecular bone volume", "setting": "[3]; day 30 and 45, Dex vs placebo, treated vs Dex (p<0.05)", "result": "higher bone volume"}, {"measurement": "Trabecular separation", "setting": "[3]; vs Dex group, day 30 and 45 (p<0.05)", "result": "lower trabecular separation"}]}
{"molecule": "PTH: parathyroid hormone, anabolic agent; given 20 ug/kg 5× a week in Example 1 (peptide, UniProt P01270 32-115, looked up, Parathyroid hormone) Parathyroid hormone: SVSEIQLMHNLGKHLNSMERVEWLRKKLQDVHNFVALGAPLAPRDAGSQRPRKKEDNVLVESHEKSLGEADKADVNVLTKAKSQ", "values": [{"measurement": "Change in trabecular bone mass/volume at the distal femur", "setting": "[8]", "result": "increased the trabecular bone volume to the baseline/sham level"}, {"measurement": "Blood vessel density of the femur", "setting": "[9]; 4 month old male mice, GC 56 days, LLP2A-Ale or PTH from day 28 for 28 days, microCT after sacrifice (FIG. 2)", "result": "significantly different from all other groups"}, {"measurement": "Vascular density of femurs", "setting": "[9]; contrast agent at day 56, decalcified femurs scanned by microCT (FIG. 3), vs GC alone", "result": "did not exhibit a significant change in vascular density; also recorded: did not significantly change vascular density"}]}
